Experimental data: US10336762B2 (priority 2017, dated 2019)
Like-named read-outs stand apart in the source and are kept apart here.

How the values were obtained:
TNFα = test: cells; format: cell-based, human; conditions: LPS-stimulated human monocytes, read-out: EC50 TNF
IRAK4 enzyme = IRAK4 enzyme (Homo sapiens (Human), UniProt Q9NWZ3); test: biochemical; format: biochemical; conditions: IRAK4 enzyme, 500 μM ATP
[1] = Homo sapiens, Monocyte, TNFα content
[2] = Homo sapiens, Monocyte, TNFα by TR-FRET

IRAK4 enzyme, sequence (Q9NWZ3 whole entry): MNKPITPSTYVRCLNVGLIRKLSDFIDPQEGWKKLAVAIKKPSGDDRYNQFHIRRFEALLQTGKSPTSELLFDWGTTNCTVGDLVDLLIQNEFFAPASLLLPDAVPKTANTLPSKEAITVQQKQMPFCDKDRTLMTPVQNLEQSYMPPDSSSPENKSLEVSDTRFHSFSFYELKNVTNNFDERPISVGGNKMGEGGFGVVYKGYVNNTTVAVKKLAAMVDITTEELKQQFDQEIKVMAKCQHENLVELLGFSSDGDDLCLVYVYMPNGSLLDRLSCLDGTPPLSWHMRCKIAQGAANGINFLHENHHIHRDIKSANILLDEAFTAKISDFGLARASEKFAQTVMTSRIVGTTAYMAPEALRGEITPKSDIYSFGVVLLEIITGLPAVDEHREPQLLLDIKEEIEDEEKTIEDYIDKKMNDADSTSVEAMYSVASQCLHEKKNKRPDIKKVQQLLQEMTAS

Work on `CC1(Nc2cc(-c3ccc4cc(C#N)cnn34)ncc2C(=O)NC[C@@H](F)C(C)(C)O)CC1` [Example 118, (R)-6-(3-cyanopyrrolo[1,2-b]pyridazin-7-yl)-N-(2-fluoro-3-hydroxy-3-methylbutyl)-4-((1-methylcyclopropyl)amino) nicotinamide] yielded an EC50 (TNFα; [1]) of 0.025 µM and an IC50 (IRAK4 enzyme; TR-FRET) of under 0.001 µM.
In the case of `CC(C)Nc1cc(-c2ccc3cc(C#N)cnn23)ncc1C(=O)NC1CC2(CC(O)C2)C1` (centres unmarked) [Example 149, 6-(3-cyanopyrrolo[1,2-b]pyridazin-7-yl)-N-(6-hydroxyspiro[3.3]heptan-2-yl)-4-(isopropylamino) nicotinamide], the EC50 (TNFα; [1]) is reported as 0.148 µM and the IC50 (IRAK4 enzyme; TR-FRET) is reported as 0.001 µM.
Work on `CCOC(=O)NC[C@H]1C[C@H](Nc2cc(-c3ccc4cc(C#N)cnn34)ncc2C(=O)NC[C@@H](F)C(C)(C)O)C1` [Example 540, ethyl (((1R,3r)-3-((2-(3-cyanopyrrolo[1,2-b]pyridazin-7-yl)-5-(((R)-2-fluoro-3-hydroxy-3-methylbutyl)carbamoyl)pyridin-4-yl)amino)cyclo-butyl)methyl)carbamate] yielded an EC50 (TNFα; [1]) of 0.012 µM and an IC50 (IRAK4 enzyme; TR-FRET (HTRF)) of under 0.001 µM.
Compound `CC(C)Nc1cc(-c2ccc3cc(C(N)=O)cnn23)ncc1C(=O)NCC1CCS(=O)(=O)C1` (centres unmarked) [Example 9, 7-(5-(((1,1-dioxidotetrahydrothiophen-3-yl)methyl)carbamoyl)-4-(isopropylamino)pyridin-2-yl)pyrrolo[1,2-b]pyridazine-3-carboxamide] has an EC50 (TNFα; [1]) of 5.1 µM and an IC50 (IRAK4 enzyme; TR-FRET) of 0.016 µM.
Compound `CC(C)(O)[C@H](F)CNC(=O)c1cnc(-c2ccc3cc(C#N)cnn23)cc1NCCC(C)(N)C(F)(F)F` (stereo partly drawn) [Example 562, 4-((3-amino-4,4,4-trifluoro-3-methylbutyl)amino)-6-(3-cyanopyrrolo[1,2-b]pyridazin-7-yl)-N-((R)-2-fluoro-3-hydroxy-3-methylbutyl)nicotinamide] has an EC50 (TNFα; [1]) of 0.075 µM and an IC50 (IRAK4 enzyme; TR-FRET (HTRF)) of 0.001 µM.
For `CC(C)(O)[C@H](F)CNC(=O)c1cnc(-c2ccc3cc(C#N)cnn23)cc1Nc1ccccc1` [Example 589, (R)-6-(3-cyanopyrrolo[1,2-b]pyridazin-7-yl)-N-(2-fluoro-3-hydroxy-3-methylbutyl)-4-(phenylamino)nicotinamide], the EC50 (TNFα; [1]) was 0.095 µM and the IC50 (IRAK4 enzyme; TR-FRET (HTRF)) was under 0.001 µM.
In the case of `Cn1cc(Nc2cc(-c3ccc4cc(C#N)cnn34)ncc2C(=O)NC[C@@H](F)C(C)(C)O)nn1` [Example 58, (R)-6-(3-cyanopyrrolo[1,2-b]pyridazin-7-yl)-N-(2-fluoro-3-hydroxy-3-methylbutyl)-4-((1-methyl-1H-1,2,3-triazol-4-yl)amino)nicotinamide], the EC50 (TNFα; [1]) is reported as 0.091 µM and the IC50 (IRAK4 enzyme; TR-FRET) is reported as under 0.001 µM.
In the case of `CC(C)(O)[C@H](F)CNC(=O)c1cnc(-c2ccc3cc(C#N)cnn23)cc1Nc1cnn([C@@H]2CNC[C@H]2F)c1` [Example 882, 6-(3-cyanopyrrolo[1,2-b]pyridazin-7-yl)-N-((R)-2-fluoro-3-hydroxy-3-methylbutyl)-4-((1-((3R,4R)-4-fluoro-pyrrolidin-3-yl)-1H-pyrazol-4-yl)amino) nicotinamide], the EC50 (TNFα; [2]) is reported as 0.022 µM and the IC50 (IRAK4 enzyme; TR-FRET) is reported as under 0.001 µM.
`CC1(O)CN(C(=O)C23CCC(Nc4cc(-c5ccc6cc(C#N)cnn56)ncc4C(=O)NC[C@@H](F)C(C)(C)O)(CC2)CC3)C1` [Example 159, (R)-6-(3-cyanopyrrolo[1,2-b]pyridazin-7-yl)-N-(2-fluoro-3-hydroxy-3-methylbutyl)-4-((4-(3-hydroxy-3-methylazetidine-1-carbonyl)bicyclo[2.2.2]octan-1-yl)amino)nicotinamide] showed an EC50 (TNFα; [1]) of 0.184 µM and an IC50 (IRAK4 enzyme; TR-FRET) of 0.001 µM.
`Cc1cc(Nc2cc(-c3ccc4cc(C#N)cnn34)ncc2C(=O)NC[C@@H](F)C(C)(C)O)ncc1C(N)=O` [Example 582, (R)-4-((5-carbamoyl-4-methylpyridin-2-yl)amino)-6-(3-cyanopyrrolo[1,2-b]pyridazin-7-yl)-N-(2-fluoro-3-hydroxy-3-methyl-butyl)nicotinamide] was tested, and the EC50 (TNFα; [1]) was 0.389 µM and the IC50 (IRAK4 enzyme; TR-FRET (HTRF)) was 0.003 µM.
For `CC(C)(O)[C@H](F)CNC(=O)c1cnc(-c2ccc3cc(C#N)cnn23)cc1Nc1ncccn1` [Example 587, (R)-6-(3-cyanopyrrolo[1,2-b]pyridazin-7-yl)-N-(2-fluoro-3-hydroxy-3-methyl-butyl)-4-(pyrimidin-2-ylamino)nicotinamide], the EC50 (TNFα; [1]) was 0.15 µM and the IC50 (IRAK4 enzyme; TR-FRET (HTRF)) was 0.003 µM.
`CC(C)(O)[C@H](F)CNC(=O)c1cnc(-c2ccc3cc(C#N)cnn23)cc1NC1CCC(=O)NC1` (stereo partly drawn) [Example 367, 6-(3-cyanopyrrolo[1,2-b]pyridazin-7-yl)-N-((R)-2-fluoro-3-hydroxy-3-methylbutyl)-4-((6-oxopiperidin-3-yl)amino)nicotinamide] showed an EC50 (TNFα; [1]) of 1.56 µM and an IC50 (IRAK4 enzyme; TR-FRET) of 0.003 µM.
`COC[C@@H]1CCN1c1ccc(Nc2cc(-c3ccc4cc(C#N)cnn34)ncc2C(=O)NC[C@@H](F)C(C)(C)O)cn1` [Example 915, 6-(3-cyanopyrrolo[1,2-b]pyridazin-7-yl)-N-((R)-2-fluoro-3-hydroxy-3-methylbutyl)-4-((6-((S)-2-(methoxymethyl)azetidin-1-yl)pyridin-3-yl)amino) nicotinamide] gave an EC50 (TNFα; [2]) of 0.028 µM and an IC50 (IRAK4 enzyme; TR-FRET) of 0.001 µM.
`CC(C)(O)[C@H](F)CNC(=O)c1cnc(-c2ccc3cc(C#N)cnn23)cc1NC1CC1CO` (stereo partly drawn) [Example 321, 6-(3-cyanopyrrolo[1,2-b]pyridazin-7-yl)-N-((R)-2-fluoro-3-hydroxy-3-methylbutyl)-4-((2-(hydroxymethyl)cyclo-propyl)amino)nicotinamide] gave an EC50 (TNFα; TNFα content) of 0.038 µM and an IC50 (IRAK4 enzyme; TR-FRET) of under 0.001 µM.
`COC(=O)[C@H](C)NC(=O)c1cnc(-c2ccc3cc(C#N)cnn23)cc1NC12CCC(O)(CC1)CC2` [Example 339, methyl (6-(3-cyano-pyrrolo[1,2-b]pyridazin-7-yl)-4-((4-hydroxy-bicyclo[2.2.2]octan-1-yl)amino)nicotinoyl)-L-alaninate] gave an EC50 (TNFα; [1]) of 0.264 µM and an IC50 (IRAK4 enzyme; TR-FRET) of 0.001 µM.
`CC(=O)NC1CCN(c2ccc(Nc3cc(-c4ccc5cc(C#N)cnn45)ncc3C(=O)NC[C@@H](F)C(C)(C)O)cn2)CC1` [Example 880, (R)-4-((6-(4-acetamido-piperidin-1-yl)pyridin-3-yl)amino)-6-(3-cyano-pyrrolo[1,2-b]pyridazin-7-yl)-N-(2-fluoro-3-hydroxy-3-methylbutyl) nicotinamide] showed an EC50 (TNFα; [2]) of 0.058 µM and an IC50 (IRAK4 enzyme; TR-FRET) of under 0.001 µM.
`CCS(=O)(=O)CCCNc1cc(-c2ccc3cc(C#N)cnn23)ncc1C(=O)NC[C@@H](F)C(C)(C)O` [Example 439, (R)-6-(3-cyanopyrrolo[1,2-b]pyridazin-7-yl)-4-((3-(ethylsulfonyl)propyl)amino)-N-(2-fluoro-3-hydroxy-3-methylbutyl) nicotinamide] gave an EC50 (TNFα; [1]) of 0.04 µM and an IC50 (IRAK4 enzyme; TR-FRET (HTRF)) of under 0.001 µM.
Work on `CC(C)(O)[C@H](F)CNC(=O)c1cnc(-c2ccc3cc(C#N)cnn23)cc1Nc1ccc2c(N)n[nH]c2c1` [Example 647, (R)-4-((3-amino-1H-indazol-6-yl)amino)-6-(3-cyanopyrrolo[1,2-b]pyridazin-7-yl)-N-(2-fluoro-3-hydroxy-3-methyl-butyl)nicotinamide] yielded an EC50 (TNFα; [1]) of 0.048 µM and an IC50 (IRAK4 enzyme; TR-FRET (HTRF)) of under 0.001 µM.
`CC(C)(O)[C@H](F)CNC(=O)c1cnc(-c2ccc3cc(C#N)cnn23)cc1Nc1ccc2c(c1)CNC2=O` [Example 434, (R)-6-(3-cyanopyrrolo[1,2-b]pyridazin-7-yl)-N-(2-fluoro-3-hydroxy-3-methylbutyl)-4-((1-oxoisoindolin-5-yl)amino)nicotinamide] showed an EC50 (TNFα; [1]) of 0.107 µM and an IC50 (IRAK4 enzyme; TR-FRET (HTRF)) of under 0.001 µM.
